Where two headings read alike, the source gives them in different places.
What was measured:
[1] = system: Jurkat (clone E6-1) cells, NFAT luciferase reporter; assay: Jurkat Reporter Assay (NFAT Luciferase); format: cell-based; conditions: Homo sapiens
[2] = system: Phospho-Zap70 (Y-319) in Jurkat wild-type (clone E6-1) cells; assay: Jurkat pZAP70 HTRF Assay; format: cell-based; conditions: Homo sapiens
[3] = biological target: Recombinant human Cbl-b (aa 36-427) (Homo sapiens (Human), UniProt Q13191); assay: Cbl-b Biochemical Assay (TR-FRET); conditions: read-out: TR-FRET hCbl-b IC50
Sequence of Recombinant human Cbl-b (aa 36-427) (Q13191 36-427): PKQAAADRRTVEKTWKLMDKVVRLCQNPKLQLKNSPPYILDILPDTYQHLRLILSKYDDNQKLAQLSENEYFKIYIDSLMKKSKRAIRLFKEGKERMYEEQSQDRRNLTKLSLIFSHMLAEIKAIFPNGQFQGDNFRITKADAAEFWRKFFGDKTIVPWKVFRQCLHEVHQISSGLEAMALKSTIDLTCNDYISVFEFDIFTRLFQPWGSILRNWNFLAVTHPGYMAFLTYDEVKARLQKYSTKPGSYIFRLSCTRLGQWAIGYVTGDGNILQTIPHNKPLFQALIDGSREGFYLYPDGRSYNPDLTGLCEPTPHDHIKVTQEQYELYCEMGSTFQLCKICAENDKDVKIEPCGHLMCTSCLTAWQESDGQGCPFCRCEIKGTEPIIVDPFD
How it was run: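 Two-step TR-FRET: 6 nM biotinylated Cbl-b preincubated 30-60 min with compound, then 60 min at RT with 1-2.5 nM Src-Zap70 and 0.5 mM ATP in HEPES pH 7.0 buffer, 1% DMSO. Stopped with 5 mM EDTA plus 100 nM UBE2D2-Ub-FL-BODIPY and 1 nM streptavidin-Tb, 60 min; 520 nm signal; IC50 from 4-parameter fit.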

[4] = 6 h, read-out: Jurkat NFAT EC50 (μM)
[5] = 3 h, read-out: ZAP70 Jurkat EC50 (μM)
[6] = anti-CD3 stimulation, 6 hr, read-out: Jurkat NFAT EC50
[7] = anti-CD3 5 μg/ml, 3 hr, read-out: ZAP70 Jurkat EC50

SMILES	EC50 [1, 4]	EC50 [2, 5]	IC50 [3]	EC50 [1, 6]	EC50 [2, 7]
CCNc1cc(-c2ccc(F)cc2-c2nncn2C)cc(N2Cc3c(cc(COCCOC)cc3C(F)(F)F)C2=O)n1	< 0.2 µM	0.2 to 1 µM	–	–	–
CCNc1cc(-c2c(-c3nncn3C)cnn2C)cc(N2Cc3c(cc(CO[C@@H]4CCC[C@@H]4O)cc3C(F)(F)F)C2=O)n1 (racemic) [ADB-1, (rac)-2-[6-(ethylamino)-4-[2-methyl-4-(4-methyl-1,2,4-triazol-3-yl)pyrazol-3-yl]pyridin-2-yl]-6-({[(1R,2S)-2-hydroxycyclopentyl]oxy}methyl)-4-(trifluoromethyl)-3H-isoindol-1-one]	–	–	≤ 200 nM	0.2 to 1 µM	1 to 10 µM
C[C@H](NCC1(O)CCC1)c1cc2c(c(C(F)(F)F)c1)CN(c1cc(-c3ccccc3-c3nncn3C)cc(C3CC3)n1)C2=O (single isomer, unassigned) [AFT-2]	–	–	≤ 200 nM	< 0.2 µM	< 0.2 µM
C[C@@H](NCC1(O)CCC1)c1cc2c(c(C(F)(F)F)c1)CN(c1cc(-c3ccccc3-c3nncn3C)cc(C3CC3)n1)C2=O (single isomer, unassigned) [AFU-1]	–	–	≤ 200 nM	< 0.2 µM	< 0.2 µM
CCNc1cc(-c2ccc(C#N)cc2-c2nncn2C)cc(N2Cc3c(cc([C@@H](O)CN(C)C)cc3C(F)(F)F)C2=O)n1 (single isomer, unassigned) [AGK-1]	–	–	≤ 200 nM	< 0.2 µM	0.2 to 1 µM
CCNc1cc(-c2ccc(C#N)cc2-c2nncn2C)cc(N2Cc3c(cc([C@H](O)CN(C)C)cc3C(F)(F)F)C2=O)n1 (single isomer, unassigned) [AGL-1]	–	–	≤ 200 nM	< 0.2 µM	0.2 to 1 µM
CCNc1cc(-c2c(-c3nncn3C)cnn2C)cc(N2Cc3c(cc(CN[C@@H]4CCC[C@@H]4O)cc3C(F)(F)F)C2=O)n1 [ADF-2, 2-[6-(Ethylamino)-4-[2-methyl-4-(4-methyl-1,2,4-triazol-3-yl)pyrazol-3-yl]pyridin-2-yl]-6-({[(1R,2S)-2-hydroxycyclopentyl]amino}methyl)-4-(trifluoromethyl)-3H-isoindol-1-one]	–	–	≤ 200 nM	< 0.2 µM	< 0.2 µM
CCNc1cc(-c2c(-c3nncn3C)cnn2C)cc(N2Cc3c(cc(CO[C@@H]4CCC[C@@H]4O)cc3C(F)(F)F)C2=O)n1 [ADH-1, 2-[6-(Ethylamino)-4-[2-methyl-4-(4-methyl-1,2,4-triazol-3-yl)pyrazol-3-yl]pyridin-2-yl]-6-({[(1R,2S)-2-hydroxycyclopentyl]oxy}methyl)-4-(trifluoromethyl)-3H-isoindol-1-one]	–	–	≤ 200 nM	< 0.2 µM	0.2 to 1 µM
CCNc1cc(-c2c(-c3nncn3C)cnn2C)cc(N2Cc3c(cc(CNCC4(O)CCC4)cc3C(F)(F)F)C2=O)n1 [ADJ-1, 2-[6-(Ethylamino)-4-[2-methyl-4-(4-methyl-1,2,4-triazol-3-yl)pyrazol-3-yl]pyridin-2-yl]-6-({[(1-hydroxycyclobutyl)methyl]amino}methyl)-4-(trifluoromethyl)-3H-isoindol-1-one]	–	–	≤ 200 nM	< 0.2 µM	< 0.2 µM
Cn1cnnc1-c1cnn(C)c1-c1cccc(N2Cc3c(cc(CN[C@@H]4CCC[C@@H]4O)cc3C(F)(F)F)C2=O)c1 [ADO-2, 6-({[(1R,2S)-2-Hydroxycyclopentyl]amino}methyl)-2-{3-[2-methyl-4-(4-methyl-1,2,4-triazol-3-yl)pyrazol-3-yl]phenyl}-4-(trifluoromethyl)-3H-isoindol-1-one]	–	–	≤ 200 nM	< 0.2 µM	< 0.2 µM
CCNc1cc(-c2ccc(C#N)cc2-c2nncn2C)cc(N2Cc3c(cccc3C(F)(F)F)C2=O)n1 [ADP-8, 4-[2-(Ethylamino)-6-[1-oxo-4-(trifluoromethyl)-3H-isoindol-2-yl]pyridin-4-yl]-3-(4-methyl-1,2,4-triazol-3-yl)benzonitrile]	–	–	≤ 200 nM	< 0.2 µM	1 to 10 µM
C[C@H]1CCCN(Cc2cc3c(c(C(F)(F)F)c2)CN(c2cccc(-c4ccc(C#N)cc4-c4nncn4C)c2)C3=O)C1 [ADQ-2, 2-(4-methyl-1,2,4-triazol-3-yl)-3′-(6-{[(3S)-3-methylpiperidin-1-yl]methyl}-1-oxo-4-(trifluoromethyl)-3H-isoindol-2-yl)-[1,1′-biphenyl]-4-carbonitrile]	–	–	≤ 200 nM	< 0.2 µM	< 0.2 µM
Cn1cnnc1-c1cnn(C)c1-c1cc(C2CC2)nc(N2Cc3c(cc(CNCC4(O)CCC4)cc3C(F)(F)F)C2=O)c1 [ADR-3]	–	–	≤ 200 nM	< 0.2 µM	< 0.2 µM
CCNc1cc(-c2ccc(C#N)cc2-c2nncn2C)cc(N2Cc3c(cc(CN4CCC[C@H](C)C4)cc3C(F)(F)F)C2=O)n1 [ADT-2, 4-[2-(Ethylamino)-6-(6-{[(3S)-3-methylpiperidin-1-yl]methyl}-1-oxo-4-(trifluoromethyl)-3H-isoindol-2-yl)pyridin-4-yl]-3-(4-methyl-1,2,4-triazol-3-yl)benzonitrile]	–	–	≤ 200 nM	< 0.2 µM	< 0.2 µM
CCNc1cc(-c2ccc(C#N)cc2-c2nncn2C)cc(N2Cc3c(cc(CN4CCC[C@@H](C)C4)cc3C(F)(F)F)C2=O)n1 [ADU-2, 4-[2-(Ethylamino)-6-(6-{[(3R)-3-methylpiperidin-1-yl]methyl}-1-oxo-4-(trifluoromethyl)-3H-isoindol-2-yl)pyridin-4-yl]-3-(4-methyl-1,2,4-triazol-3-yl) benzonitrile]	< 0.2 µM	0.2 to 1 µM	≤ 200 nM	–	–
Cn1cnnc1-c1cc(C#N)ccc1-c1cccc(N2Cc3c(cc(CNCC4(O)CCC4)cc3C(F)(F)F)C2=O)c1 [ADV-1, 3′-[6-({[(1-Hydroxycyclobutyl)methyl]amino}methyl)-1-oxo-4-(trifluoromethyl)-3H-isoindol-2-yl]-2-(4-methyl-1,2,4-triazol-3-yl)-[1,1′-biphenyl]-4-carbonitrile]	–	–	≤ 200 nM	< 0.2 µM	< 0.2 µM
CCNc1cc(-c2ccc(C#N)cc2-c2nncn2C)cc(N2Cc3c(cc(CO)cc3C(F)(F)F)C2=O)n1 [ADX-2, 4-[2-(Ethylamino)-6-[6-(hydroxymethyl)-1-oxo-4-(trifluoromethyl)-3H-isoindol-2-yl]pyridin-4-yl]-3-(4-methyl-1,2,4-triazol-3-yl) benzonitrile]	–	–	≤ 200 nM	< 0.2 µM	0.2 to 1 µM
Cn1cnnc1-c1ccccc1-c1cc(C2CC2)nc(N2Cc3c(cc(CNCC4(O)CCC4)cc3C(F)(F)F)C2=O)c1 [ADZ-2, 2-{6-Cyclopropyl-4-[2-(4-methyl-1,2,4-triazol-3-yl)phenyl]pyridin-2-yl}-6-({[(1-hydroxycyclobutyl)methyl]amino}methyl)-4-(trifluoromethyl)-3H-isoindol-1-one]	–	–	≤ 200 nM	< 0.2 µM	< 0.2 µM
COCCNCc1cc2c(c(C(F)(F)F)c1)CN(c1cccc(-c3ccc(C#N)cc3-c3nncn3C)c1)C2=O [AEB-2, 3′-(6-(((2-Methoxyethyl)amino)methyl)-1-oxo-4-(trifluoromethyl)isoindolin-2-yl)-2-(4-methyl-4H-1,2,4-triazol-3-yl)-[1,1′-biphenyl]-4-carbonitrile]	–	–	≤ 200 nM	< 0.2 µM	< 0.2 µM
CCNc1cc(-c2ccc(C#N)cc2-c2nncn2C)cc(N2Cc3c(cc(CNCCOC)cc3C(F)(F)F)C2=O)n1 [AEC-2, 4-[2-(Ethylamino)-6-(6-{[(2-methoxyethyl)amino]methyl}-1-oxo-4-(trifluoromethyl)-3H-isoindol-2-yl)pyridin-4-yl]-3-(4-methyl-1,2,4-triazol-3-yl)benzonitrile]	–	–	≤ 200 nM	< 0.2 µM	< 0.2 µM
CCNc1cc(-c2c(-c3nncn3C)cnn2C)cc(N2Cc3c(cc(COCC4(O)CCC4)cc3C(F)(F)F)C2=O)n1 [AED-2, 2-[6-(Ethylamino)-4-[2-methyl-4-(4-methyl-1,2,4-triazol-3-yl)pyrazol-3-yl]pyridin-2-yl]-6-{[(1-hydroxycyclobutyl)methoxy]methyl}-4-(trifluoromethyl)-3H-isoindol-1-one]	–	–	≤ 200 nM	< 0.2 µM	0.2 to 1 µM
CCNc1cc(-c2ccc(F)cc2-c2nncn2C)cc(N2Cc3c(cc(CO)cc3C(F)(F)F)C2=O)n1 [AEF-1, 2-(6-(Ethylamino)-4-(4-fluoro-2-(4-methyl-4H-1,2,4-triazol-3-yl)phenyl)pyridin-2-yl)-6-(hydroxymethyl)-4-(trifluoromethyl)isoindolin-1-one]	–	–	≤ 200 nM	< 0.2 µM	< 0.2 µM
Cn1cnnc1-c1ccccc1-c1cc(C2CC2)nc(N2Cc3ccc(CNCC4(O)CCC4)cc3C2=O)c1 [AEH-1, 2-{6-Cyclopropyl-4-[2-(4-methyl-1,2,4-triazol-3-yl)phenyl]pyridin-2-yl}-6-({[(1-hydroxycyclobutyl)methyl]amino}methyl)-3H-isoindol-1-one]	–	–	≤ 200 nM	< 0.2 µM	< 0.2 µM
Cn1cnnc1-c1ccccc1-c1cccc(N2Cc3c(cc(COC4CCOCC4)cc3C(F)(F)F)C2=O)c1 [BD-3, 2-(2′-(4-Methyl-4H-1,2,4-triazol-3-yl)-[1,1′-biphenyl]-3-yl)-6-(((tetrahydro-2H-pyran-4-yl)oxy)methyl)-4-(trifluoromethyl)isoindolin-1-one]	–	–	≤ 200 nM	1 to 10 µM	–
Cn1cnnc1-c1cc(C#N)ccc1-c1cccc(N2Cc3c(cc(CN[C@@H]4CCC[C@@H]4O)cc3C(F)(F)F)C2=O)c1 [BE-3, 3′-(6-((((1R,2S)-2-Hydroxycyclopentyl)amino)methyl)-1-oxo-4-(trifluoromethyl)isoindolin-2-yl)-2-(4-methyl-4H-1,2,4-triazol-3-yl)-[1,1′-biphenyl]-4-carbonitrile]	–	–	≤ 200 nM	< 0.2 µM	–

From patent US12325697B2 (Nimbus Clio, Inc., priority 2021, dated 2025)
